Data as given in US10463709B2, “Short synthetic peptide for treating diseases and/or conditions related to angiogenesis” (MacKay Memorial Hospital, priority 2015, dated 2019).
Square brackets hold non-standard residues; d marks the D form. Ends that are not written are not given here.

What was measured:
[1] = system: STZ-induced diabetic mice; assay: Vascular abnormalities in the retina of diabetic mice; assay type: in vivo; conditions: for Fluorescence Intensity (Fold): leaked FITC-BSA in entire retina, vs vehicle
Procedure: Diabetic mice were generated by a single intraperitoneal injection of streptozotocin (STZ) (150 mg/kg body weight). STZ was freshly prepared in 0.1 M citrate buffer (pH 4.5). After injection, mice were supplied with 10% sucrose overnight to prevent sudden hypoglycemic shock. After 1 week, mice with non-fasting blood glucose levels >500 mg/dl were defined as diabetic and used for the experiments. DMSO Vehicle or the present synthetic peptide (10 mg/kg; n≥3 per peptide) were administered by intraperitoneal injections twice a day. After treatment for 24 h, mice were intraperitoneal injected with 100 mg/kg of BSA-FITC for further 30 min.
To determine vascular lesions (hemorrhaging areas) in retina, the animals were euthanized by CO2 inhalation, and the eyes were enucleated and fixed by 2% paraformaldehyde for 2 hr and flat-mounted onto glass slides to obtain optical sections by an epifluorescence microscopy. Vascular lesions in the retina was scored in all four retinal quadrants of flat mounts by using a 20× objective. Six microscopic fields were sampled in each quadrant in both the central and peripheral retina, and data were presented as the average number of lesions/retina.
Vascular FITC-BSA leakage was determined by a fluorescence spectrofluorometer based on standard curves of FITC-BSA at excitation and emission wavelengths of 488 and 535 nm, respectively, and then normalized to a non-injected control retina. For this analysis, retinas were dissected from treated and untreated diabetic mice after BSA-FITC injections, and each was solubilized in 300 μL ice-cold PBS.
Diabetic retinopathy is characterized by blood-retinal barrier (BRB) breakdown and neurotoxicity. To evaluate the possible beneficial effect of the present synthetic peptides on diabetic retinopathy, STZ-induced diabetic mice were intraperitoneally injected with 7-mer peptide, DMSO vehicle or the control peptide (SEQ ID NO: 22). The retinal vascular abnormality was then monitored by detecting the extravasation of BSA-fluorescein. Results are depicted in FIG. 11.

HUVECs [2] = assay: Endothelial cell capillary-like tube formation assay; assay type: cell-based; conditions: VEGF (10 ng/mL) + 25 μM peptide; vs untreated HUVECs
Procedure: To examine the effect of the present synthetic peptide on in vitro angiogenesis, growth factor-reduced matrigel was pipetted into pre-chilled 24-well plates (150 μl matrigel per well) and polymerized for 45 min at 37° C. […] In this experiment, images were captured using a Cannon camera on Zeiss inverted microscope with magnification ×40 and tube length was quantified using Image analysis software (Image-Pro Plus). The control peptide as used in the present invention has the sequence of DLYRVR (SEQ ID NO: 10).

RPMI8226 cells = assay: MTT assay, VEGF-induced proliferation of RPMI8226 cells; assay type: cell-based; conditions: for effect on VEGF-induced proliferation of RPMI8226 cells: VEGF 50 ng/ml, 25 μM peptide, 24 hrs, MTT
Procedure: The multiple myeloma line RPMI8226 was cultivated in complex medium (RPMI1640) supplemented with 10% (vol/vol) heat-inactivated fetal calf serum (Invitrogen), 50 μg/mL penicillin, 50 μg/mL streptomycin, and 2 mM L-glutamine at 37° C. in a 5% CO2 atmosphere. RPMI8226 cells were cultured in serum-free RPMI1640 medium for 24 hrs, and then cells were seeded in 48-well culture plates (3×10^5 cells/well) and continued to culture in 0.5 ml fresh serum-free RPMI1640 medium containing 25 μM peptide for another 24 hrs. The cell viability was determined by the MTT assay. Briefly, 50 μL of MTT stock solution (50 μL) (5 mg MTT dissolved in 1 ml of sterile PBS) was added to each culture well. In addition, 50 μL of the MTT stock solution was added in 500 μL of medium as the negative control. The culture plate was incubated at 37° C. for 4 hours. Aliquots (450 μl) from each sample were taken to a new well of 48-well culture plate, adding 100 μL DMSO, mixing thoroughly using the pipette and reacted at 37° C. for 20 min and read absorbance at 570 nm. These synthesized peptides were then subject to MTT assay, in which vascular endothelial growth factor (VEGF) was used as a stimulant to induce cell proliferation. Results are depicted in FIGS. 1 to 4.

B16-F10 melanoma cells = assay: Experimental pulmonary metastasis in mice; assay type: in vivo, C57BL/6 mice; conditions: for effect on number of colonies on the surface of the lung / in vivo metastasis / No. lung colonies: 10 mg/Kg intraperitoneal every 2 days; for No. lung colonies: day 8, n = 5; for Inhibition (%): lung colonies vs vehicle, 10 mg/Kg
Procedure: 2×10^5 B16-F10 cells were suspended in 100 μl PBS and checked for viability using trypan blue staining (>95%). The B16-F10 cells were then injected into the tail vein of the 6-week-old female C57BL/6 mice; while vehicle (DMSO), the present synthetic peptide or the control peptide (10 mg/kg) were administered by intraperitoneal injections every 2 days after the B16-F10 cell injection. Five mice were used for each group. On day 8 after inoculation of cells, the lungs were removed, and the number of visible colonies on the surface of the lungs were counted using a dissecting microscope.
Metastasis is the foremost cause of death from cancer. In this example, to investigate the efficacy of the present synthetic peptide on the metastasis of cancer cells, B16-F10 cells were injected into the tail vein of a mouse, the animal was then treated with the present synthetic peptide (7-mer or 7-mer DD, 10 mg/Kg) by intraperitoneal injections every 2 days. Upon completion of the experiment, the lungs were then removed and the tumor colonies visible to the eyes were then counted. Results are depicted in FIG. 10.

HUVECs [3] = assay: VEGF-induced HUVEC proliferation assay; assay type: cell-based; conditions: VEGF (10 ng/mL) + 25 μM peptide; vs untreated HUVECs
Procedure: HUVECs (1×10^5 cells per well of 6-well plate) were grown in Medium 200 with Low Serum Growth Supplement (LSGS Kit, supplement contains 1.9% FBS, 3 ng/ml bFGF, 10 μg/ml heparin, 1 μg/ml hydrocortisone, and 10 ng/ml EGF). Culture plates were coated with 2% gelatin. Cells (passages 4-8) were cultured at 37° C. in a humidified atmosphere of 5% CO2. […]
HUVECs (1×10^5 cells per well of 6-well plate) in Medium 200 supplemented with LSGS Kit were allowed to grow onto 6-well plates coated with 2% gelatin for 24 hours at 37° C. in 5% CO2. The culture medium was then replaced with serum free Medium 200 overnight. […] Then, cells were harvested by trypsin-EDTA and counted using a hemocytometer.

rat aortic ring = assay: Rat aortic ring assay (ex vivo microvessel sprouting); design: species or system Sprague Dawley rats; conditions: beta-FGF induced; peptide 50 μM
Procedure: Thoracic aortas were removed from euthanized 10-week-old male Sprague Dawley rats, and gently stripped off periaortic fibroadipose tissue. Aortas were sectioned to about 2-mm length rings, which were embedded in Matrigel. To induce angiogenesis, human recombinant bFGF (50 ng/ml) or bFGF plus the peptide (50 μM) was added in Matrigel. Gel (200 μl) containing an aortic ring was polymerized in 12-well plates (37° C. for 30 min) and then incubated with 1 ml of Medium 200 supplemented with 100 units/ml penicillin, and […] streptomycin and 2% FBS at 37 ° C. The cultures were propagated at 37 ° C. in a humidified incubator for up to 7 days. Sprouts were recorded using an inverted microscope platform (Leica DM16000B) with bright-field optics. Each ring was scored by three independent observers on a scale 0-4 depending on the degree of sprouting vessel being observed (0=no sprouting, 4=profuse sprouting). The experiment was repeated in triplicates.

| Substance | extravasation of FITC-BSA [1] | Fluorescence Intensity (Fold) [1] | Tube length (Fold) (HUVECs [2]) | effect on VEGF-induced proliferation of RPMI8226 cells (RPMI8226 cells) | effect on number of colonies on the surface of the lung / in vivo metastasis (B16-F10 melanoma cells) | No. lung colonies (B16-F10 melanoma cells) | Inhibition (%) (B16-F10 melanoma cells) | Cell number (Fold) (HUVECs [3]) | level of sprouting microvessels around the aortic ring (rat aortic ring) | dose dependence of inhibitory action on VEGF-induced cell proliferation (RPMI8226 cells; 1 to 25 μM, RPMI8226 cells) | biological activity of the analogue relative to the 7-mer (summary statement of the description) (RPMI8226 cells; summary of Example 1 findings) |
| --- | --- | --- | --- | --- | --- | --- | --- | --- | --- | --- | --- |
| NH2-Asp-Leu-Tyr-Arg-Gln-Lys-Ser-COOH (DLYRQKS; not fully specified (N-terminus, C-terminus); printed as NH2-Asp-Leu-Tyr-Arg-Gln-Lys-Ser-COOH) [7-mer QK] | may significantly prevent | 0.31 ± 0.081 Fold | 1.46 ± 0.31 Fold | could sustain 7-mer bioactivity, only partly | may suppress in vivo metastasis | 82 ± 16.3 | 63.5% | 1.09 ± 0.067 Fold | inhibited |  |  |
| NH2-Asp-Leu-Tyr-Arg-Met-Lys-Ser-COOH (DLYRMKS; not fully specified (N-terminus, C-terminus); printed as NH2-Asp-Leu-Tyr-Arg-Met-Lys-Ser-COOH) [7-mer MK] | may significantly prevent | 0.37 ± 0.095 Fold | 1.18 ± 0.31 Fold | could sustain 7-mer bioactivity, only partly | may suppress in vivo metastasis | 79 ± 26.4 | 65.0% | 1.04 ± 0.062 Fold | inhibited |  |  |
| NH2-Asp-Leu-Trp-Arg-Ile-Arg-Ser-COOH (DLWRIRS; not fully specified (N-terminus, C-terminus); printed as NH2-Asp-Leu-Trp-Arg-Ile-Arg-Ser-COOH) [7-mer WI] | may significantly prevent | 0.31 ± 0.085 Fold | 1.23 ± 0.22 Fold | could sustain 7-mer bioactivity, only partly | may suppress in vivo metastasis | 74 ± 24.3 | 67.3% | 0.91 ± 0.078 Fold | inhibited |  |  |
| NH2-Asn-Val-Tyr-Arg-Val-Arg-Ser-COOH (NVYRVRS; not fully specified (N-terminus, C-terminus); printed as NH2-Asn-Val-Tyr-Arg-Val-Arg-Ser-COOH) [7-mer NV] | may significantly prevent | 0.35 ± 0.11 Fold | 1.41 ± 0.32 Fold | could sustain 7-mer bioactivity, only partly | may suppress in vivo metastasis | 55 ± 16.5 | 75.8% | 1.01 ± 0.086 Fold | inhibited |  |  |
| NH2-Asp-Ile-Tyr-Arg-Val-Pro-Ser-COOH (DIYRVPS; not fully specified (N-terminus, C-terminus); printed as NH2-Asp-Ile-Tyr-Arg-Val-Pro-Ser-COOH) [7-mer IP] | may significantly prevent | 0.38 ± 0.12 Fold | 1.66 ± 0.20 Fold | could sustain 7-mer bioactivity, only partly | may suppress in vivo metastasis | 63 ± 9.4 | 72.0% | 1.05 ± 0.067 Fold | inhibited |  |  |
| H-DLYR[dV]RS-OH [7-mer DV] | may significantly prevent | 0.31 ± 0.072 Fold | 1.24 ± 0.18 Fold |  | may suppress in vivo metastasis | 51 ± 17.0 | 77.4% | 0.99 ± 0.078 Fold | inhibited | dose dependent manner |  |
| NH2-Asp-Leu-Tyr-Arg-Val-Arg-(D-Ser)-COOH (H-DLYRVR[dS]-OH) [7-mer DS] |  | 0.96 ± 0.12 Fold | 3.45 ± 0.26 Fold |  |  | 245 ± 30.4 | −9.0% | 1.59 ± 0.084 Fold | unaffected |  | lose its biological activity |
